Entries after “also recorded” stand apart in the source; their conditions may differ.
What was measured:
[1] = Metabolic stability in liver microsomes; assay type: in vitro ADME; settings: beagle dog liver microsomes
MT-SOD1 protein uptake = assay: SOD1 recombinant protein uptake into neuronal cells; assay type: cell-based
Description: For monitoring the localization of SOD1 recombinant proteins, SOD1-Halo proteins were added in neuronal cultures for 2 h and then the cells were incubated with the cell-permeable HaloTag-fluorscent ligands (diAcFAM) for 30 min. After incubation, cells were washed with serum-free culture medium three times and incubated in serum-containing culture medium in a CO2 incubator for 30 min to wash out unbound ligand. Fluorescent images of live cells were obtained using a commercial Tomocube HT-2H holotomography system (Daejeon, Republic of Korea).
We hypothesized that PRG-A-04, which targets trimeric SOD1, would inhibit SOD1 protein uptake. MT-SOD1 proteins were incubated with PRG-A-04 in vitro, and then cells were treated with the mixture. The MT-SOD1 protein uptake was reduced by incubation with PRG-A-04, as was SOD1 oligomerization (Fig. 3f, g). […] However, whether neuron-specific receptors on synapses, physiological conditions (neuronal cellular stress such as ion deficiency, environmental conditions such as hypoxia) and other ALS-related genetic causes (TDP-43, FUS, etc.) are essential for SOD1 uptake requires further study.
Fig. S3 SOD1 protein uptake into the cells through endocytosis. a, The uptake of SOD1 proteins was achieved by endocytosis. SH-SY5Y cells were treated with SOD1 recombinant proteins and endocytosis inhibitor (Dynasore; […]) for 6hr. After incubations, cells were harvested with RIPA and separated by SDS-PAGE. S.E: short exposure, L.E: long exposure. b, The recombinant MT-SOD1 protein is located intracellular space in neuron cells. SOD1-Halo proteins (3 μg/ml) were treated in neuron cells for 2 hr and incubated with HaloTag-fluorscent ligands (cellpermeable ligands; diAcFAM) for 30 min. After incubation, cells were washed with fresh culture medium three times and.
Incubate cells in complete culture medium at CO2 incubator for 30 min to wash unbound ligand. The fluorescence images of live cells were obtained using a commercial holotomography (HT-2H). White arrows indicate the intensity of SOD1. BF; Bright field, Scale bar; […].

[2] = target: T1, GST-SOD1-G93A recombinant protein (MT-SOD1) (Homo sapiens, UniProt P00441, G94A); assay: GST pull-down with LC-MS/MS of protein-bound compound; assay type: binding; settings: GST pull-down and LC-MS/MS
T1 construct: made in house; host or cells: Escherichia coli BL21 (DE3), pCold GST vector
Description: To prepare a calibration curve within the PRG-A-04 concentration range of 1–50 ppb, standard solutions (1, 5, 10, 25, 50 ppb) were prepared by dilution with 90% methanol. GST, GST-SOD1 WT, and GST–SOD1-G93A recombinant proteins bound to GST agarose were incubated overnight with PRG-A-04 (20 μmol/L) in cold chamber (4 °C). The samples were washed three times to remove unbound PRG-A-04 from the proteins. The washed sample pellets were incubated with 90% methanol to elute the protein-bound PRG-A-04. The elutes from each sample were analyzed by LC/MS as follows. Both standard samples and control samples underwent the same sample processing procedures as the test samples. The LC–MS/MS analysis was performed on a Waters UPLC Acquity I-class plus system coupled to a Qtrap 6500 plus system (Sciex, Framingham, MA). An Aeris 3.6 μm 100 × 2.1 mm column (Phenomenex, Torrance, CA) was used for separation. The mobile phase consisted of solvent A (water containing 0.1% formic acid) and solvent B (acetonitrile containing 0.1% formic acid). Gradient elution was achieved as follows: […], 90% A, 10% B; 0.37–6.0 min, 55% A, 45% B; 6.0–7.0 min, 5% A, 95% B; 7.0–10.0 min, 90% A, 10% B. The flow rate was 0.4 mL/min. The column temperature was 40 °C, and the sample injection volume was 10 µL. After each injection, the autosampler syringe was washed with methanol. […]

T1 sequence (P00441 whole entry G94A): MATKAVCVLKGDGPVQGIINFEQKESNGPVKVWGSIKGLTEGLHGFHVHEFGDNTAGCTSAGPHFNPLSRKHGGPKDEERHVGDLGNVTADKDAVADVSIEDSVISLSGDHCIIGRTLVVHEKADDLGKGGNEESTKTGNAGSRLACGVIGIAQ

## COc1cc(C=CCOC2Cc3cc4ccc(=O)oc4cc3OC2(C)C)ccc1[N+](=O)[O-] (stereo not shown) [PRG-A-04]
[1]
  extent of metabolism in liver microsomes: moderately metabolized; also recorded: metabolized significantly
MT-SOD1 protein uptake; MT-SOD1 protein pre-incubated with PRG-A-04 in vitro, then added to neuronal cells
  effect on MT-SOD1 protein uptake: selectively inhibited MT-SOD1 uptake; also recorded: reduced
MT-SOD1 protein uptake; neuronal cells
  effect on SOD1 oligomerization induced by SOD1 protein uptake: reduced SOD1 oligomerization induced by SOD1 protein uptake
[2]
  binding affinity to MT-SOD1 versus WT-SOD1: stronger binding affinity to MT-SOD1 than to WT-SOD1 protein

Source: article PMC12067741, “Inhibition of SOD1 trimerization is a novel drug target for ALS disease” (Translational Neurodegeneration, 2025)
